Structures are written as SMILES. Converted amounts (≈) assume the structure as drawn. Like-named read-outs stand apart in the source and are kept apart here. Where only a bound is given, the exact number is not on record here.

The values that follow come from patent publication US9663478B2, “Benzotriazine oxides as drugs targeting Mycobacterium tuberculosis” (priority 2011, dated 2017).

The subject of series [1] is Mtb H37Rv. Briefly: TB MIC - SRI, resazurin-based microplate assay. It is filed as cell-based, Mycobacterium tuberculosis. The conditions noted are these: for MIC: Mycobacterium tuberculosis, H37RV. Background: The colour change of resazurin is a common sign of viable cells or microbes.
Series [2] concerns Mtb H37Rv. The series is described as follows: TB MIC - ITR (UIC), Institute for Tuberculosis Research. It counts as cell-based, Mycobacterium tuberculosis. The conditions noted are these: for TB MIC - ITR / MIC: Tables 1-4; for TB MIC - UIC: Tables P1, P2; for MIC: Mycobacterium tuberculosis, H37RV, read-out: TB MIC - ITR.
In series [3] the test system is NRP Mtb H37Rv cells. Briefly: Low-oxygen recovery assay (LORA) MIC. It counts as cell-based, Mycobacterium tuberculosis. The conditions noted are these: for LORA MIC: Tables P1, P2, non-replicating M. tuberculosis; for MIC: Mycobacterium tuberculosis, H37RV, read-out: LORA MIC - ITR.
Series [4] deals with Vero cells.
Setting [5] is: Tables P1-P3, read-out: TB MIC - SRI.
[6] abbreviates: Tables 1-4 and text, read-out: TB MIC - SRI.

As to `CCNc1n[n+]([O-])c2cccc(C)c2[n+]1[O-]` [Compound 15ea, Ethyl-(5-methyl-1,4-dioxy-benzo[1,2,4]triazin-3-yl)-amine], the “MIC, H37Rv” value in series [1] (Table 5) was 0.62 µg/mL (≈ 2.82 µM). Further, the “TB MIC - SRI” value in series [1] (Tables 1-4 and text) stood at 0.62 µg/mL. Further, the “TB MIC - ITR” value in series [2] is 0.51 µg/mL. For the same compound, the “LORA MIC - ITR” value in series [3] (NRP Mtb, Tables 1-4 and text) was found to be 0.48 µg/mL. Further, the “Vero Tox CC50” value in series [4] was determined as 22 µg/mL.
By MIC is commonly meant the lowest concentration found to suppress growth. For the compound `CCC(COC)Nc1n[n+]([O-])c2cc(Cl)ccc2[n+]1[O-]` (stereo not drawn) [SRI-012304], the MIC in series [1] (setting [5]) came out at 1.25 µg/mL (≈ 4.18 µM). In series [2], this compound showed a TB MIC - UIC of 1.46 µg/mL. Further, in series [3], the LORA MIC was determined as 0.78 µg/mL. For the same compound, the “VERO Tox-SRI” value in series [4] (African green monkey, 72 h) is recorded as 2.6.
Regarding `[O-][n+]1nc(N[C@@H]2C[C@H]3CC[C@@H]2C3)[n+]([O-])c2ccccc21` [Compound 8m, 3-((1R,2R,4S)-bicyclo[2.2.1]heptan-2-ylamino)benzo[e][1,2,4]triazine 1,4-dioxide], the MIC was 0.62 µg/mL (≈ 2.28 µM) in series [1] (setting [6]); 0.6 µg/mL (≈ 2.2 µM) in series [2]; 0.42 µg/mL (≈ 1.54 µM) in series [3] (NRP Mtb, Tables 1-4 and text). Further, the “Vero Tox CC50” value in series [4] (African green monkey, 72 h) is 3.4 µg/mL.
`[O-][n+]1nc(NC2CCCC2)[n+]([O-])c2ccc(F)cc21` [SRI-012277]: the minimum inhibitory concentration (MIC) in series [1] (setting [5]) amounted to 0.312 µg/mL (≈ 1.18 µM). In series [2], this compound came in with a TB MIC - UIC of 0.33 µg/mL. Besides, in series [3], the LORA MIC is 0.34 µg/mL. Further, the “VERO Tox-SRI” value in series [4] (African green monkey, 72 h) is listed as 2.3.
With `O=S1(=O)CCN(c2n[n+]([O-])c3cc4c(cc3[n+]2[O-])CCC4)CC1` [Compound 20v, 3-(thiomorpholinosulfone-1-yl)-7,8-dihydro-6H-indeno[5,6-e][1,2,4]triazine 1,4-dioxide], the “TB MIC - SRI” value in series [1] (Tables 1-4 and text) worked out at 5.0 µg/mL. Besides, in series [2], the “TB MIC - ITR” value stood at 15 µg/mL. For the same compound, the “LORA MIC - ITR” value in series [3] (NRP Mtb, Tables 1-4 and text) came out at 30 µg/mL. Moreover, the “Vero Tox CC50” value in series [4] turned out to be 17 µg/mL.
As for `[O-][n+]1nc(NC2CC2)[n+]([O-])c2ccc(F)cc21` [Compound 15ab, 3-(cyclopropylamino)-7-fluorobenzo[e][1,2,4]triazine 1,4-dioxide], the MIC in series [1] (setting [6]) was determined as 0.31 µg/mL (≈ 1.31 µM); in series [2], 0.93 µg/mL (≈ 3.94 µM); in series [3] it was 3.5 µg/mL (≈ 14.8 µM). Also, the “Vero Tox CC50” value in series [4] (African green monkey, 72 h) came out at 1.3 µg/mL.
Consider `COc1ccc2c(c1)[n+]([O-])nc(NC1CCC1)[n+]2[O-]` [Compound 15dd, 3-(cyclobutylamino)-7-methoxybenzo[e][1,2,4]triazine 1,4-dioxide], for which the minimal inhibitory concentration (MIC) was found to be 0.62 µg/mL (≈ 2.36 µM) in series [1] (setting [6]); 0.96 µg/mL (≈ 3.66 µM) in series [2]; 0.9 µg/mL (≈ 3.43 µM) in series [3] (NRP Mtb, Tables 1-4 and text). For the same compound, the “Vero Tox CC50” value in series [4] (African green monkey, 72 h) was found to be 9.8 µg/mL.
For the compound `[O-][n+]1nc(N[C@H]2[C@@H]3C[C@H]4C[C@@H](C3)C[C@@H]2C4)[n+]([O-])c2ccccc21` [Compound 8n, 3-((1R,3S,5r,7r)-adamantan-2-ylamino)benzo[e][1,2,4]triazine 1,4-dioxide], the “TB MIC - SRI” value in series [1] (Tables 1-4 and text) was 2.5 µg/mL. The “TB MIC - ITR” value in series [2] stood at 1.9 µg/mL. Moreover, the “LORA MIC - ITR” value in series [3] (NRP Mtb, Tables 1-4 and text) came out at 2.3 µg/mL. Moreover, in series [4], the “Vero Tox CC50” value was 7.3 µg/mL.
With `CCC(COC)Nc1n[n+]([O-])c2cc(F)ccc2[n+]1[O-]` (stereo not drawn) [SRI-012278], the minimum inhibitory concentration (MIC) in series [1] (setting [5]) is 5 µg/mL (≈ 17.7 µM). Besides, in series [2], the TB MIC - UIC came to 2 µg/mL. The same compound returned an LORA MIC in series [3] of 1.87 µg/mL. In addition, the “VERO Tox-SRI” value in series [4] (African green monkey, 72 h) is 6.3.
In the case of `CN(CCc1ccccc1)c1n[n+]([O-])c2cc3c(cc2[n+]1[O-])CCC3` [Compound 20u, 3-(methyl(phenethyl)amino)-7,8-dihydro-6H-indeno[5,6-e][1,2,4]triazine 1,4-dioxide], the MIC was 0.31 µg/mL (≈ 0.922 µM) in series [1] (Table 5, read-out: MIC, H37Rv); 0.24 µg/mL (≈ 0.713 µM) in series [2]; 0.44 µg/mL (≈ 1.31 µM) in series [3] (NRP Mtb, Tables 1-4 and text). The “Vero Tox CC50” value in series [4] (African green monkey, 72 h) turned out to be 40 µg/mL.
`CO[C@H]1/C=C/O[C@@]2(C)Oc3c(C)c(O)c4c(O)c(c(/C=N/N5CCN(C)CC5)c(O)c4c3C2=O)NC(=O)/C(C)=C\C=C\[C@H](C)[C@H](O)[C@@H](C)[C@@H](O)[C@@H](C)[C@H](OC(C)=O)[C@@H]1C` [RIF, Rifampin, reference compound]: the MIC is 0.003 µg/mL (≈ 0.00365 µM) in series [1] (setting [6]); 0.041 µg/mL (≈ 0.0498 µM) in series [2]; 2 µg/mL (≈ 2.43 µM) in series [3] (NRP Mtb, Tables 1-4 and text). Moreover, the “Vero Tox CC50” value in series [4] (African green monkey, 72 h) is over 50 µg/mL.
As for `CCNc1n[n+]([O-])c2cc(Cl)ccc2[n+]1[O-]` [Compound 15ba, 7-chloro-3-(ethylamino)benzo[e][1,2,4]triazine 1,4-dioxide], the MIC in series [1] (setting [6]) is 1.2 µg/mL (≈ 4.99 µM); in series [2], under 0.12 µg/mL; in series [3] (NRP Mtb, Tables 1-4 and text) it was 0.41 µg/mL (≈ 1.7 µM). The “Vero Tox CC50” value in series [4] (African green monkey, 72 h) was 2.6 µg/mL.
For the compound `[O-][n+]1nc(NC2CC2)[n+]([O-])c2ccc(F)cc21` [SRI-012274], the MIC in series [1] (setting [5]) was 0.312 µg/mL (≈ 1.32 µM). In addition, the TB MIC - UIC in series [2] was 0.93 µg/mL. This compound also came in with an LORA MIC in series [3] of 2.8 µg/mL. For the same compound, the “VERO Tox-SRI” value in series [4] (African green monkey, 72 h) came to 3.5.
In the case of `[O-][n+]1nc(NC2CCC2)[n+]([O-])c2ccc(Br)cc21` [Compound 15cd, 7-bromo-3-(cyclobutylamino)benzo[e][1,2,4]triazine 1,4-dioxide], the MIC in series [1] (setting [6]) was determined as 0.15 µg/mL (≈ 0.482 µM); in series [2], 0.46 µg/mL (≈ 1.48 µM); in series [3] (NRP Mtb, Tables 1-4 and text), 0.41 µg/mL (≈ 1.32 µM). In series [4] (African green monkey, 72 h), the “Vero Tox CC50” value was 3.8 µg/mL.
The corresponding values for `[O-][n+]1nc(N[C@@H]2C[C@H]3CC[C@@H]2C3)[n+]([O-])c2cc3c(cc21)CCC3` [Compound 15fm, 3-((1R,2R,4S)-bicyclo[2.2.1]heptan-2-ylamino)-7,8-dihydro-6H-indeno[5,6-e][1,2,4]triazine 1,4-dioxide] are 1.2 µg/mL (≈ 3.84 µM), 0.93 µg/mL (≈ 2.98 µM), 0.36 µg/mL (≈ 1.15 µM) and over 50 µg/mL.
For `[O-][n+]1nc(NC2CCCC2)[n+]([O-])c2ccc(Br)cc21` [Compound 15ce, 7-bromo-3-(cyclopentylamino)benzo[e][1,2,4]triazine 1,4-dioxide], the MIC in series [1] (setting [6]) was found to be 0.15 µg/mL (≈ 0.461 µM); in series [2], 0.35 µg/mL (≈ 1.08 µM); in series [3] (NRP Mtb, Tables 1-4 and text), 0.46 µg/mL (≈ 1.41 µM). Besides, in series [4] (African green monkey, 72 h), the “Vero Tox CC50” value was 18 µg/mL.
In the case of `CC1CCCCN1c1n[n+]([O-])c2cc3c(cc2[n+]1[O-])CCC3` (stereo not drawn) [Compound 20w, 3-(2-methylpiperidin-1-yl)-7,8-dihydro-6H-indeno[5,6-e][1,2,4]triazine 1,4-dioxide], the MIC stood at 1.2 µg/mL (≈ 4 µM) in series [1] (Table 5, read-out: MIC, H37Rv); 0.66 µg/mL (≈ 2.2 µM) in series [2]; 0.47 µg/mL (≈ 1.56 µM) in series [3] (NRP Mtb, Tables 1-4 and text). In series [4] (African green monkey, 72 h), the “Vero Tox CC50” value is over 50 µg/mL.
On to `[O-][n+]1nc(NC2CCCCC2)[n+]([O-])c2ccc(F)cc21` [SRI-012275], for which the MIC in series [1] (setting [5]) came to 0.625 µg/mL (≈ 2.25 µM). For the same compound, the TB MIC - UIC in series [2] came out at 0.68 µg/mL. The same compound displayed an LORA MIC in series [3] of 0.47 µg/mL. Also, the “VERO Tox-SRI” value in series [4] (African green monkey, 72 h) is under 2.5.
As to `COc1cc2c(cc1C)[n+]([O-])nc(N[C@@H]1C[C@H]3CC[C@@H]1C3)[n+]2[O-]` [Compound 15gm, 3-((1R,2R,4S)-bicyclo[2.2.1]heptan-2-ylamino)-6-methoxy-7-methylbenzo[e][1,2,4]triazine 1,4-dioxide], the MIC in series [1] (setting [6]) came to 5 µg/mL (≈ 15.8 µM); in series [2], 5.6 µg/mL (≈ 17.7 µM); in series [3] (NRP Mtb, Tables 1-4 and text) it was 3.5 µg/mL (≈ 11.1 µM). Besides, the “Vero Tox CC50” value in series [4] (African green monkey, 72 h) was over 50 µg/mL.
The like results for `COc1ccc2c(c1)[n+]([O-])nc(N[C@@H]1C[C@H]3CC[C@@H]1C3)[n+]2[O-]` [Compound 15dm, 3-((1R,2R,4S)-bicyclo[2.2.1]heptan-2-ylamino)-7-methoxybenzo[e][1,2,4]triazine 1,4-dioxide] were, in that order, 0.62 µg/mL (≈ 2.05 µM), 0.97 µg/mL (≈ 3.21 µM), 1.6 µg/mL (≈ 5.29 µM) and over 50 µg/mL.
